The values that follow come from patent publication US9073881B2, “Benzoic acid derivatives” (HOFFMANN-LA ROCHE INC., priority 2011, dated 2015).

The target of the experiment is Human eIF4E (Homo sapiens (Human), UniProt P06730). The experiment can be described thus: Human eIF4E/4G binding assay (time-resolved fluorescence, HH-eIF4E and biotin-labeled 4G2 peptide). To be noted: inhibition of binding of His-tagged human eIF4E (aa 28-217) to biotin-labeled 4G2 peptide. The method, then:
The protein was solubilized with 8 M urea and purified under denaturing conditions using nickel-charged HisTrap HP columns (GE Healthcare). The protein was refolded by diluting to approximately 0.25 mg/mL with 6 M urea, 20 mM Hepes pH 7.0, 500 mM NaCl, 1 mM DTT, 1 mM EDTA, and 0.5 M arginine.HCl, and then dialyzing overnight into the same buffer without the urea. The protein was further dialyzed into 20 mM Hepes pH 6.5, 50 mM NaCl, 1 mM EDTA, and 1 mM DTT, filtered, and then concentrated using Hitrap SP sepharose FF columns (GE Healthcare). The protein was dialyzed into 20 mM Hepes pH 7.0, 500 mM NaCl, 5 mM DTT, and 10% glycerol and stored at −80° C. until use. Test compounds (1.6 mM stock in DMSO) were diluted 3 fold in series in DMSO. Compound solutions were diluted 4 fold in Assay Buffer (50 mM sodium phosphate, pH 6.5, 50 mM KCl, 1 mM DTT and 0.5 mg/mL gammaglobulin). […] The samples were incubated at room temperature for 20 minutes. […] IC50 values were calculated using Condoseo software (Genedata AG).

Human eIF4E, sequence (P06730 28-217): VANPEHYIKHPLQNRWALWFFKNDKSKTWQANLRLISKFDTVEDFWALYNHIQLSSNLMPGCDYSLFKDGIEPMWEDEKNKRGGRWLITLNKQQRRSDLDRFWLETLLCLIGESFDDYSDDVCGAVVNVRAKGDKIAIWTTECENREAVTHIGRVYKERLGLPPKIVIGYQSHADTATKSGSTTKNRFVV

`O=C(O)c1cc(-c2nc(-c3ccc(Cl)c(Cl)c3)cs2)ccc1-c1cccc(C(F)(F)F)c1Cl` [Example 126, 2′-Chloro-4-[4-(3,4-dichloro-phenyl)-thiazol-2-yl]-3′-trifluoromethyl-biphenyl-2-carboxylic acid]: the half-maximal inhibitory concentration (IC50) (in general, the concentration needed to halve the response being measured) turned out to be 2.8 µM.

In turn, `O=C(O)c1cc(-c2nc(-c3ccc(Cl)c(Cl)c3)cs2)ccc1-c1ccc(F)cn1` [Example 100, 5-[4-(3,4-Dichloro-phenyl)-thiazol-2-yl]-2-(5-fluoro-pyridin-2-yl)-benzoic acid] returned a 50% inhibitory concentration (IC50) of 3 µM. In the case of `O=C(O)c1cc(-c2nc(-c3ccc(Cl)c(Cl)c3)cs2)ccc1-c1ccncc1` [Example 103, 5-[4-(3,4-Dichloro-phenyl)-thiazol-2-yl]-2-pyridin-4-yl-benzoic acid] it was 8.5 µM. As to `COc1ccc(-c2ccc(-c3nc(-c4ccc(Cl)c(Cl)c4)cs3)cc2C(=O)O)c([N+](=O)[O-])c1` [Example 28, 4-[4-(3,4-Dichloro-phenyl)-thiazol-2-yl]-4′-methoxy-2′-nitro-biphenyl-2-carboxylic acid], the IC50 worked out at 3.2 µM. This IC50 lies about 2.7-fold lower than the previous one. Under `CN1CCC(NC(=O)c2ccc(-c3ccc(-c4nc(-c5ccc(Cl)c(Cl)c5)cs4)cc3C(=O)O)cc2)CC1` [Example 51, 4-[4-(3,4-Dichloro-phenyl)-thiazol-2-yl]-4′-(1-methyl-piperidin-4-ylcarbamoyl)-biphenyl-2-carboxylic acid] stands more than 80 µM; under `O=C(O)c1cc(-c2nc(-c3ccc(Cl)c(Cl)c3)cs2)ccc1-c1cc(Cl)ccc1[N+](=O)[O-]` [Example 14, 5′-Chloro-4-[4-(3,4-dichloro-phenyl)-thiazol-2-yl]-2′-nitro-biphenyl-2-carboxylic acid], 1.3 µM. Under `O=C(NCc1cccc(C(F)(F)F)c1)c1ccc(-c2ccc(-c3nc(-c4ccc(Cl)c(Cl)c4)cs3)cc2C(=O)O)cc1` [Example 71, 4-[4-(3,4-Dichloro-phenyl)-thiazol-2-yl]-4′-(3-trifluoromethyl-benzylcarbamoyl)-biphenyl-2-carboxylic acid] stands 3.2 µM. Molecule `O=C(O)c1cc(-c2nc(-c3ccc(Cl)c(Cl)c3)cs2)ccc1-c1cc(C(F)(F)F)ccc1[N+](=O)[O-]` [Example 4, 4-[4-(3,4-Dichloro-phenyl)-thiazol-2-yl]-2′-nitro-5′-trifluoromethyl-biphenyl-2-carboxylic acid] returned a half-inhibitory concentration (IC50) of 2 µM. Under `Cc1ccc(C=O)c(-c2ccc(-c3nc(-c4ccc(Cl)c(Cl)c4)cs3)cc2C(=O)O)c1` [Example 122, 4-[4-(3,4-Dichloro-phenyl)-thiazol-2-yl]-2′-formyl-5′-methyl-biphenyl-2-carboxylic acid] stands 5.1 µM; under `O=C(O)c1cc(-c2nc(-c3ccc(Cl)c(Cl)c3)cs2)ccc1-c1ccccc1[N+](=O)[O-]` [Example 16, 4-[4-(3,4-Dichloro-phenyl)-thiazol-2-yl]-2′-nitro-biphenyl-2-carboxylic acid], 0.5 µM; under `NC(=O)c1ncccc1-c1ccc(-c2nc(-c3ccc(Cl)c(Cl)c3)cs2)cc1C(=O)O` [Example 77, 2-(2-Carbamoyl-pyridin-3-yl)-5-[4-(3,4-dichloro-phenyl)-thiazol-2-yl]-benzoic acid], 1.3 µM.

As to `O=C(O)c1cc(-c2nc(-c3ccc(Cl)c(Cl)c3)cs2)ccc1-c1ccc(C(F)(F)F)cc1C(F)(F)F` [Example 125, 4-[4-(3,4-Dichloro-phenyl)-thiazol-2-yl]-2′,4′-bis-trifluoromethyl-biphenyl-2-carboxylic acid], the IC50 came out at 3 µM. `O=C(NCCc1cccnc1)c1ccc(-c2ccc(-c3nc(-c4ccc(Cl)c(Cl)c4)cs3)cc2C(=O)O)cc1` [Example 66, 4-[4-(3,4-Dichloro-phenyl)-thiazol-2-yl]-4′-(2-pyridin-3-yl-ethylcarbamoyl)-biphenyl-2-carboxylic acid] yielded a concentration for half-maximal inhibition (IC50) of 9.6 µM. This IC50 lies about 3.2-fold higher than the previous one. In turn, `O=C(O)c1cc(-c2nc(-c3ccc(Cl)c(Cl)c3)cs2)ccc1-c1sccc1Cl` [Example 146, 2-(3-Chloro-thiophen-2-yl)-5-[4-(3,4-dichloro-phenyl)-thiazol-2-yl]-benzoic acid] came in with an IC50 of 1.7 µM. Compared with the last molecule, the IC50 is about 5.6-fold lower.

`O=C(NCc1cccs1)c1ccc(-c2ccc(-c3nc(-c4ccc(Cl)c(Cl)c4)cs3)cc2C(=O)O)cc1` [Example 75, 4-[4-(3,4-Dichloro-phenyl)-thiazol-2-yl]-4′-[(thiophen-2-ylmethyl)-carbamoyl]-biphenyl-2-carboxylic acid] registered a half-maximal inhibitory concentration (IC50) of 3.1 µM. This IC50 is about 1.8-fold higher than that of the molecule before. In the case of `O=C(O)c1cc(-c2nc(-c3ccc(Cl)c(Cl)c3)cs2)ccc1-c1ccc(C(=O)N2CCCC2)cc1` [Example 57, 4-[4-(3,4-Dichloro-phenyl)-thiazol-2-yl]-4′-(pyrrolidine-1-carbonyl)-biphenyl-2-carboxylic acid] it was 4.3 µM; in that of `O=C(O)c1cc(-c2nc(-c3ccc(Cl)c(Cl)c3)cs2)ccc1-c1cc(C(F)(F)F)ccc1Cl` [Example 128, 2′-Chloro-4-[4-(3,4-dichloro-phenyl)-thiazol-2-yl]-5′-trifluoromethyl-biphenyl-2-carboxylic acid], 1.1 µM; in that of `COc1ncc(-c2ccc(-c3nc(-c4ccc(Cl)c(Cl)c4)cs3)cc2C(=O)O)cn1` [Example 83, 5-[4-(3,4-Dichloro-phenyl)-thiazol-2-yl]-2-(2-methoxy-pyrimidin-5-yl)-benzoic acid], 14 µM. Molecule `CN(C)CCNC(=O)c1ccc(-c2ccc(-c3nc(-c4ccc(Cl)c(Cl)c4)cs3)cc2C(=O)O)cc1` [Example 49, 4-[4-(3,4-Dichloro-phenyl)-thiazol-2-yl]-4′-(2-dimethylamino-ethylcarbamoyl)-biphenyl-2-carboxylic acid] displayed a half-inhibitory concentration (IC50) of more than 80 µM. For the molecule `O=C(O)c1cc(-c2nc(-c3ccc(Cl)c(Cl)c3)cs2)ccc1-c1cc(F)cc(F)c1F` [Example 133, 4-[4-(3,4-Dichloro-phenyl)-thiazol-2-yl]-2′,3′,5′-trifluoro-biphenyl-2-carboxylic acid], the IC50 amounted to 1.6 µM. `CC(=O)c1cccc(-c2ccc(-c3nc(-c4ccc(Cl)c(Cl)c4)cs3)cc2C(=O)O)c1` [Example 116, 3′-Acetyl-4-[4-(3,4-dichloro-phenyl)-thiazol-2-yl]-biphenyl-2-carboxylic acid]: the IC50 came out at 7.7 µM. Under `CC(=O)N1CCC(NC(=O)c2ccc(-c3ccc(-c4nc(-c5ccc(Cl)c(Cl)c5)cs4)cc3C(=O)O)cc2)CC1` [Example 52, 4′-(1-Acetyl-piperidin-4-ylcarbamoyl)-4-[4-(3,4-dichloro-phenyl)-thiazol-2-yl]-biphenyl-2-carboxylic acid] stands 10 µM. Under `CN1CCN(C(=O)c2ccc(-c3ccc(-c4nc(-c5ccc(Cl)c(Cl)c5)cs4)cc3C(=O)O)cc2)CC1` [Example 53, 4-[4-(3,4-Dichloro-phenyl)-thiazol-2-yl]-4′-(4-methyl-piperazine-1-carbonyl)-biphenyl-2-carboxylic acid] stands more than 80 µM; under `O=C(NCCCN1CCOCC1)c1ccc(-c2ccc(-c3nc(-c4ccc(Cl)c(Cl)c4)cs3)cc2C(=O)O)cc1` [Example 58, 4-[4-(3,4-Dichloro-phenyl)-thiazol-2-yl]-4′-(3-morpholin-4-yl-propylcarbamoyl)-biphenyl-2-carboxylic acid], more than 80 µM. `Cc1cscc1-c1ccc(-c2nc(-c3ccc(Cl)c(Cl)c3)cs2)cc1C(=O)O` [Example 142, 5-[4-(3,4-Dichloro-phenyl)-thiazol-2-yl]-2-(4-methyl-thiophen-3-yl)-benzoic acid] registered an IC50 of 4.2 µM. The molecule `COc1cccc(-c2ccc(-c3nc(-c4ccc(Cl)c(Cl)c4)cs3)cc2C(=O)O)c1` [Example 91, 4-[4-(3,4-Dichloro-phenyl)-thiazol-2-yl]-3′-methoxy-biphenyl-2-carboxylic acid] came in with an IC50 of 5 µM. Under `N#Cc1cccc(-c2ccc(-c3nc(-c4ccc(Cl)c(Cl)c4)cs3)cc2C(=O)O)c1` [Example 107, 3′-Cyano-4-[4-(3,4-dichloro-phenyl)-thiazol-2-yl]-biphenyl-2-carboxylic acid] stands 3.2 µM; under `NC(=O)c1ccc(Cl)c(-c2ccc(-c3nc(-c4ccc(Cl)c(Cl)c4)cs3)cc2C(=O)O)c1` [Example 109, 5′-Carbamoyl-2′-chloro-4-[4-(3,4-dichloro-phenyl)-thiazol-2-yl]-biphenyl-2-carboxylic acid], 3.7 µM. In the case of `O=C(O)c1cc(-c2nc(-c3cccc(F)c3)cs2)ccc1-c1ccccc1[N+](=O)[O-]` [Example 24, 4-[4-(3-Fluoro-phenyl)-thiazol-2-yl]-2′-nitro-biphenyl-2-carboxylic acid] it was 2.6 µM; in that of `O=C(O)c1cc(-c2nc(-c3cc(C(F)(F)F)cc(C(F)(F)F)c3)cs2)ccc1-c1ccccc1[N+](=O)[O-]` [Example 8, 4-[4-(3,5-Bis-trifluoromethyl-phenyl)-thiazol-2-yl]-2′-nitro-biphenyl-2-carboxylic acid], 2.5 µM. Under `N#Cc1ccc(Cl)cc1-c1ccc(-c2nc(-c3ccc(Cl)c(Cl)c3)cs2)cc1C(=O)O` [Example 110, 5′-Chloro-2′-cyano-4-[4-(3,4-dichloro-phenyl)-thiazol-2-yl]-biphenyl-2-carboxylic acid] stands 1.7 µM; under `Cc1cc(C#N)ccc1-c1ccc(-c2nc(-c3ccc(Cl)c(Cl)c3)cs2)cc1C(=O)O` [Example 105, 4′-Cyano-4-[4-(3,4-dichloro-phenyl)-thiazol-2-yl]-2′-methyl-biphenyl-2-carboxylic acid], 1.3 µM.
